Tests used:
[1] = Water absorption by Dynamic Vapour Sorption (Example E6); format: physicochemical; conditions: 25° C.; for Crystalline form at the end of the DVS measuring cycle: maleate; for Water absorption: DVS
Experimental: (§1) Water absorption is determined by means of dynamic water vapour absorption (Dynamic Vapour Sorption, DVS) using apparatus DVS-1 from Surface Measurement System Ltd. The sample is placed in a platinum crucible at the tip of a microchemical balance. Then the sample is firstly equilibrated at 50% relative atmospheric humidity and then subjected to a predefined measuring program. The temperature is 25° C. The change in weight of the sample is determined.

[2] = Storage under elevated atmospheric humidity, samples investigated by Raman spectroscopy; format: physicochemical; conditions: room temperature, 75% relative atmospheric humidity
Description: The amorphous form according to Example B1 is stored at room temperature and 75% relative atmospheric humidity and samples are investigated after 2 days, 1, 2, 3, 4 and 8 weeks using Raman spectroscopy. […] The same mixture is still observed after 8 weeks.
The maleate produced according to Example A1 is stored at room temperature and 75% relative atmospheric humidity and samples are investigated after 3 days, 1, 2, 3, 4, 8 and 10 weeks using Raman spectroscopy.
The crystalline form B produced according to Example D1 is stored at room temperature and 75% relative atmospheric humidity and samples are investigated after 3 days, 1, 2, 3, 4 and 8 weeks using Raman spectroscopy.
FT Raman spectra are recorded using a Bruker RFS 100 FT-Raman system, which is operated with an Nd:YAG laser (wavelength 1064 nm) and a germanium detector cooled with liquid nitrogen. For each sample, 64 scans are accumulated with a resolution of 2 cm^−1. In general, a laser power of 100 mW is used.

[3] = Stability at elevated temperature in open and closed vessels (HPLC, FT Raman); format: physicochemical
Experimental: The crystalline forms are stored in open and closed vessels and, after a predetermined time, possible changes are measured chromatographically (HPLC) as stability parameters.

[4] = General properties stated in the description (solubility, hygroscopicity)
[5] = Stability under pressure (tablet pressing); format: physicochemical; conditions: tablet press, vacuum, 100 MPa, 60 minutes
Experimental: The maleate produced according to Example A1 is introduced into a tablet press and pressed under a vacuum at a pressure of 100 MPa for 60 minutes to form a tablet.
The procedure is carried out in accordance with Example E5a) with crystalline form B according to Example D1.

[6] = Stability under grinding conditions (trituration, ball mill); format: physicochemical
Experimental: The maleate produced according to Example A1 is triturated with a pestle in a mortar for 5 minutes. […] Amorphous fractions are not observed.
Crystalline form B according to Example D1 is triturated with a pestle in a mortar for 5 minutes.
The maleate produced according to Example A1 is introduced into an agate ball mill (Retsch MM200 mixing mill with 5 mm agate ball) and ground at 20 Hz and room temperature for 180 minutes. […] Amorphous fractions are not observed.
The procedure is carried out in accordance with Example E4c) with crystalline form B according to Example D1.

[7] = Storage of amorphous form at room temperature and 20% or 90% atmospheric humidity for 24 hours; format: physicochemical; conditions: 20 mg, room temperature
[8] = Damp storage and drying of maleate and hydrochloride (XRD, DSC, dry weight, Karl-Fischer water content); format: physicochemical; conditions: for Change in crystalline form by X-ray diffraction pattern: after damp storage (25° C., 75% and 95% R.H., 7 days) and drying (50° C., vacuum, 7 days)
Experimental: Maleate and hydrochloride according to Example E8 are stored firstly at 25° C. and 75% and 95% relative atmospheric humidity for 7 days and thereafter are dried for 7 days in the drying cabinet at 50° C. under a vacuum. Before storage begins, X-ray diffraction patterns (XRD) are recorded, DSC performed to determine transition points (Tp), dry weight (DW) and the Karl-Fischer water content (WC) are determined and the same values again after damp storage and drying. The X-ray diffraction patterns show no change in crystalline forms A and D after damp storage and drying. The initial vales for the hydrochloride are Tp=116.27° C., DW=6.35% and WC 8.00%. The initial values for the maleate are Tp=170.4° C. and 179.85° C., DW=0 and WC=0.2%. The results are given in Tables 3 (75% relative atmospheric humidity) and 4 (95% relative atmospheric humidity).

[9] = Water absorption of maleate and hydrochloride by DVS (Example E8, comparison); format: physicochemical; conditions: 25° C.
Experimental: as §1, with “determined after a stepwise increase in relative atmospheric humidity by 10% steps up to 90%.” for “determined.”

[10] = 40° C./75% R.H., 1 week, maleate
[11] = 60° C. (closed), 1 week, maleate
[12] = 60° C. (closed), 4 weeks, maleate
[13] = 60° C./75% R.H., 4 weeks, maleate
[14] = 75% R.H. storage, then dried 7 days at 50° C. under vacuum
[15] = 95% R.H. storage, then dried 7 days at 50° C. under vacuum
[16] = after damp storage, 25° C., 75% relative atmospheric humidity, 7 days
[17] = after damp storage, 25° C., 95% relative atmospheric humidity, 7 days

| SMILES | Crystalline form at the end of the DVS measuring cycle [1] | Water absorption ([1]; measuring cycle) | Crystalline form found by Raman spectroscopy after storage ([2]; after 8 weeks, maleate) | HPLC [3, 10] [%] | HPLC [3, 11] [%] | HPLC [3, 12] [%] | HPLC [3, 13] [%] | HPLC ([3]; −18° C. (reference), 4 weeks) [%] | Solubility in polar solvents [4] | Tp [8, 14] [°C] | WC [8, 14] [%] | WC [8, 15] [%] | Change in crystalline form by X-ray diffraction pattern [8] | Tp [8, 16] [°C] | WC [8, 16] [%] | WC [8, 17] [%] | DW (dry weight) ([8]; initial value, before storage) [%] | WC (Karl-Fischer water content) ([8]; initial value, before storage) [%] | Hygroscopicity [4] | other results |
| --- | --- | --- | --- | --- | --- | --- | --- | --- | --- | --- | --- | --- | --- | --- | --- | --- | --- | --- | --- | --- |
| CN(C)C[C@@H]1CCCC[C@H]1c1cccc(O)c1.O=C(O)/C=C\C(=O)O [Crystalline form B, (+)-(1R,2R)-3-[2-(dimethylamino)methyl-(cyclohex-1-yl)]-phenol maleate] | mixture of crystalline forms A and B | approx. 0.2 wt. % | virtually unchanged | 100.3 | 100.6 | 100.9 | 101.1 | 100 | very good |  |  |  |  |  |  |  |  |  |  | FT Raman (determination of crystalline form) ([3]; 40° C./75% R.H., 1 week): A and B; FT Raman (determination of crystalline form) ([3]; 60° C. (closed), 1 week): A and B; FT Raman (determination of crystalline form) ([3]; 60° C. (closed), 4 weeks): A and B; FT Raman (determination of crystalline form) ([3]; 60° C./75% R.H., 4 weeks): A and B; FT Raman (determination of crystalline form) ([3]; −18° C. (reference), 4 weeks): A and B; Crystalline form after tablet pressing ([5]; maleate): mixture of crystalline forms A and B; Crystalline form after grinding ([6]; agate ball mill, 20 Hz, room temperature, 180 minutes, maleate): mixture of crystalline forms A and B; Crystalline form after trituration ([6]; pestle in a mortar, 5 minutes, maleate): mixture of crystalline forms A and B |
| CN(C)C[C@@H]1CCCC[C@H]1c1cccc(O)c1.O=C(O)/C=C\C(=O)O [amorphous form, (+)-(1R,2R)-3-[2-(dimethylamino)methyl-(cyclohex-1-yl)]-phenol maleate] | mixture of crystalline forms A and B |  | same mixture |  |  |  |  |  |  |  |  |  |  |  |  |  |  |  |  | Water absorption ([1]; up to approx. 33% relative atmospheric humidity): approx. 2.2 wt. %; Crystalline form found by Raman spectroscopy after storage ([2]; after 2 days): mixture of crystalline forms A and B; Form obtained after storage ([7]; 20% atmospheric humidity): mixture of crystalline forms A and B; Form obtained after storage ([7]; 90% atmospheric humidity): only crystalline form A |
| CN(C)C[C@@H]1CCCC[C@H]1c1cccc(O)c1.Cl [Hydrochloride, (+)-(1R,2R)-3-[2-(dimethylamino)methyl-(cyclohex-1-yl)]-phenol hydrochloride] |  |  |  |  |  |  |  |  |  | 113.83 | 6.00 | 6.60 | no change | 116.22 | 8.50 | 8.50 | 6.35 | 8.00 | decidedly hygroscopic | DW [8, 14]: 6.12%; DW [8, 15]: 6.74; Tp [8, 15]: 114.47 °C; DW [8, 16]: 5.92%; DW [8, 17]: 7.84%; Tp [8, 17]: 116.52 °C; Tp (transition point, DSC) ([8]; initial value, before storage): 116.27 °C; Water absorption altogether ([9]; further increase to 90% relative atmospheric humidity): approx. 5 wt. %; Water absorption ([9]; relative atmospheric humidity increased to approx. 75%): approx. 2 wt. %; Water released on desorption altogether ([9]; relative atmospheric humidity lowered in 10% steps): 8.5% |
| CN(C)C[C@@H]1CCCC[C@H]1c1cccc(O)c1.O=C(O)/C=C\C(=O)O [Crystalline form A, (+)-(1R,2R)-3-[2-(dimethylamino)methyl-(cyclohex-1-yl)]-phenol maleate] | unchanged crystalline form A | approx. 0.2 wt. % |  | 100.2 | 100.2 | 100.5 | 100.3 | 100 | very good | 165.33 | 0.20 | 0.50 | no change | 165.41 | 0.20 | 0.20 | 0 | 0.2 | non-hygroscopic | Crystalline form found by Raman spectroscopy after storage ([2]; after 10 weeks): virtually unchanged; Stability at elevated temperature (summary) ([3]; storage in open and closed vessels): very stable with regard to chemical stability and crystal shape; Crystalline form after tablet pressing ([5]; listed as Example A1, maleate): unchanged form; Amorphous fractions after grinding ([6]; agate ball mill, 20 Hz, room temperature, 180 minutes): not observed; Crystalline form after grinding ([6]; agate ball mill, 20 Hz, room temperature, 180 minutes, listed as Example A1, maleate): unchanged form; Amorphous fractions after trituration ([6]; pestle in a mortar, 5 minutes): not observed; Crystalline form after trituration ([6]; pestle in a mortar, 5 minutes, listed as Example A1, maleate): unchanged form; Release of the absorbed moisture ([9]; at approx. 10% relative atmospheric humidity): released again completely; Water absorption ([9]; relative atmospheric humidity raised in 10% steps up to 90%): 0.06% |

From patent US7884247B2, “Salt of dimethylaminomethyl-phenyl-cyclohexane and crystalline forms thereof” (Gruenenthal GmbH, priority 2005, dated 2011)
